The subject of one experiment is MDA-MB-468. Briefly: NCI SRB screen, MDA-MB-468. To be noted: Homo sapiens, MDA-MB-468, read-out: GI50 values.
In a further experiment the test system is UACC-254. Briefly: NCI SRB screen, UACC-254. The note with it: Homo sapiens, read-out: GI50 values.

Take `COc1ccc2[nH]c(-c3cc(-c4cc(OC)c(OC)c(OC)c4)n[nH]3)nc2c1` [9f, 5-methoxy-2-(3-(3,4,5-trimethoxyphenyl)-1H-pyrazol-5-yl)-1H-benzo[d]imidazole]: the concentration for 50% growth inhibition (GI50) in the experiment on MDA-MB-468 turned out to be 380 nM.

Consider `Fc1ccc2[nH]c(-c3cc(-c4ccc5c(c4)OCO5)n[nH]3)nc2c1` [7g, 2-(3-(benzo[d][1,3]dioxol-5-yl)-1H-pyrazol-5-yl)-5-fluoro-1H-benzo[d]imidazole], for which the 50% growth inhibitory concentration (GI50) with UACC-254 worked out at 1020 nM.

What is called GI50 is the concentration at which growth is held to half of that of the control.

These data come from patent publication US9951049B2, “Pyrazole linked benzimidazole conjugates and a process for preparation thereof” (Council of Scientific & Industrial Reseach, priority 2014, dated 2018).
